Source: PubChem BioAssay AID1963869 (Molecular Pharmacology Branch, DTP, NCI, 2024)
“And” between values parts separate entries of the source, which are not always exact repeats. Equal values may be shown once.

System: KRAS patient-derived spheroids with HUVEC/MSC, viability
Assay: Anticancer human tumor 323965-272-R-J2-PDC patient-derived pancreatic carcinoma cell line growth inhibition [KRAS2]
Conditions: for viability, T/C: stronger effect = lower value
Text: Multicellular complex tumor spheroid response to RAS pathway inhibitors in combination with a targeted agents in patient-derived cell lines with oncogenic KRAS variants from multiple cancer types
A high-throughput screen of multi-cell type tumor spheroids was designed to identify active combinations of targeted small molecules and KRAS pathway inhibitors. Complex spheroids include a stromal component modeled by human endothelial cells (HUVEC) and fibroblasts modeled by human mesenchymal stem cells (MSCs). The concentration ranges selected for each drug and investigational agent were based upon clinically achievable concentrations if the clinical Cmax of the agent was known.
Compounds. The drugs and investigational agents: BI-3406 (NSC825286), BAY-293 (NSC824723), batoprotafib (TNO155; NSC825523), sotorasib (AMG 510; NSC818433), MRTX1257 (NSC819558), elimusertib (BAY 1895344; NSC800525), molibresib (GSK525762; NSC774829), temuterkib (LY3214996; NSC803410), venetoclax (NSC766270), alisertib (NSC759677), olaparib (NSC753686), talazoparib (NSC767125), erdafitinib (NSC781556), ipatasertib (NSC767898), cabozantinib (NSC761068), nintedanib (NSC756659), abemaciclib (NSC768073), docetaxel (NSC628503), trametinib (NSC758246), and sapanisertib (NSC764658) were obtained from the National Cancer Institute (NCI) Developmental Therapeutics Program Chemical Repository. The FDA-approved anticancer drug set is available from the Developmental Therapeutics Program. […] The stock solutions were prepared in dimethyl sulfoxide (DMSO, Sigma-Aldrich, St. Louis, MO, cat. D2650) at 800-fold the tested concentration and stored at -70 degrees C prior to their use. All drugs and investigational agents were tested over a range starting from a high concentration at or near the clinical Cmax and decreasing in half-log increments. If the clinical Cmax for an agent had not been determined, the highest concentration tested was 10 microM.
Cell Culture. All cells were maintained in an incubator at 37 degrees C and 5% CO2 with 95% humidity. The PDC lines were cultured according to standard operating procedures established by the NCI PDMR (https://pdmr.cancer.gov/sops/default.htm). Briefly, all PDCs were thawed and cultured in Matrigel-coated flasks prepared with a working solution of 1X Ham's F-12 nutrient mix, without supplementation (Invitrogen, Waltham, MA, cat. 11765054), 100 U/mL penicillin-streptomycin (Invitrogen, cat. 15140122), and 2.5% Matrigel (Corning Inc., Corning, NY, cat. 354248) for the first three passages. All PDCs were cultured in complete DMEM/F-12 media containing advanced DMEM/F-12 (Invitrogen, cat. 12634028), 4.9% defined fetal bovine serum, heat inactivated (HyClone Laboratories Inc., Logan, UT, cat. SH30070.03HI), 389 ng/mL hydrocortisone (Sigma-Aldrich, cat. H4001), 9.7 ng/mL human EGF recombinant protein (Invitrogen, cat. PHG0313), 23.4 microg/mL adenine (Sigma-Aldrich, cat. A2786), 97.3 U/mL penicillin-streptomycin (Invitrogen, cat. 15140122), 1.9 mM L-glutamine (Invitrogen, cat. 25030081), and 9.7 microM Y-27632 dihydrochloride (Tocris Bioscience, Bristol, United Kingdom, cat. 1254). The PDCs were cultured in complete DMEM/F12 media without 9.7 microM Y-27632 dihydrochloride for at least two passages prior to the screen. The established cell line HOP-62 was cultured in RPMI 1640 medium, HEPES (Invitrogen, cat. 22400105) with 10% defined fetal bovine serum (HyClone Laboratories Inc., cat. SH30070.03) and 2 mM L-glutamine (Invitrogen, cat. 25030081). The pooled donor HUVEC were cultured in endothelial cell growth medium 2 (PromoCell, Heidelberg, Germany, cat. C-22011) and the hMSC were cultured in mesenchymal stem cell growth medium 2 (PromoCell, cat. C-28009). For all experiments, HUVEC and hMSC were used at passages </=5, while the malignant cell lines were used at passages </=15. […]

[1] = compound alone, run of 08/26/2021
[2] = compound alone, run of 09/02/2021
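Note: spheroids exposed to agents for 7 days.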
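Throughout, for viability, T/C: 100% = DMSO vehicle control viability.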

| SMILES | viability, T/C (compound 0.0316 µM) | viability, T/C (compound 0.1 µM) | viability, T/C (compound 1 µM) | IC50 [1] | IC50 [2] | viability, T/C (compound 0.0001 µM) | viability, T/C (compound 0.000316 µM) | viability, T/C (compound 0.001 µM) | viability, T/C (compound 0.00316 µM) | viability, T/C (compound 0.01 µM) | IC50 (curve of compound) | viability, T/C (compound 0.316 µM) | viability, T/C (compound 3.16 µM) | viability, T/C (compound 10 µM) |
| --- | --- | --- | --- | --- | --- | --- | --- | --- | --- | --- | --- | --- | --- | --- |
| C=CC(=O)N1CCN(c2nc(OCC3CCCN3C)nc3c2CCN(c2cccc4cccc(C)c24)C3)CC1CC#N (stereo not given) | 70.1% [middle of 17 runs] | 60.4% [middle of 17 runs] | 57.9% [middle of 17 runs] | 1.07 µM [middle of 5 runs] | 1.12 µM [middle of 6 runs] |  |  |  |  |  |  |  |  |  |
| CC(=O)Nc1cccc(-n2c(=O)n(C3CC3)c(=O)c3c(Nc4ccc(I)cc4F)n(C)c(=O)c(C)c32)c1 | 31.2% [middle of 5 runs] |  |  |  |  | 98.3% [middle of 5 runs] | 90.7% [middle of 5 runs] | 76.2% [middle of 5 runs] | 57.5% [middle of 5 runs] | 44.7% [middle of 5 runs] | 5.93 nM [middle of 5 runs] |  |  |  |
| CC(=O)OC12COC1CC(O)C1(C)C(=O)C(O)C3=C(C)C(OC(=O)C(O)C(NC(=O)OC(C)(C)C)c4ccccc4)CC(O)(C(OC(=O)c4ccccc4)C21)C3(C)C (stereo not given) | 35.4% [middle of 5 runs] | 32.5% [middle of 5 runs] | 34% [middle of 5 runs] |  |  |  |  |  |  | 35.9% [middle of 5 runs] | < 0.01 µM | 36.5% [middle of 5 runs] | 34.3% [middle of 5 runs] |  |
| CC(C)n1nc(-c2ccc3oc(N)nc3c2)c2c(N)ncnc21 | 24.4% [middle of 5 runs] | 21.4% [middle of 5 runs] |  |  |  |  | 91% [middle of 5 runs] | 81.3% [middle of 5 runs] | 54.4% [middle of 5 runs] | 33.1% [middle of 5 runs] | 4 nM [middle of 5 runs] |  |  |  |
| CC1COCCN1c1cc(-c2ccnn2C)c2ccnc(-c3ccn[nH]3)c2n1 (stereo not given) | 39.8% [middle of 5 runs] | 25.1% [middle of 5 runs] | 20.6% [middle of 5 runs] |  |  |  |  |  |  | 77.9% [middle of 5 runs] | 23.8 nM [middle of 5 runs] | 21.9% [middle of 5 runs] | 18.9% [middle of 5 runs] |  |
| CC1OCC2(CCN(c3cnc(Sc4ccnc(N)c4Cl)c(N)n3)CC2)C1N (stereo not given) | 77.5% and 85.9% and 85.1% |  |  | 785 nM [middle of 5 runs] | 535 nM [middle of 6 runs] |  |  |  |  |  | 1.1 µM [middle of 5 runs] | 60% [middle of 19 runs] |  |  |
| CCN1CCN(Cc2ccc(Nc3ncc(F)c(-c4cc(F)c5nc(C)n(C(C)C)c5c4)n3)nc2)CC1 | 76.6% [middle of 5 runs] | 61% [middle of 5 runs] | 62.6% [middle of 5 runs] |  |  |  |  |  | 93.4% [middle of 5 runs] |  | > 1 µM | 62.1% [middle of 5 runs] |  |  |
| CCNC(=O)CC1N=C(c2ccc(Cl)cc2)c2cc(OC)ccc2-n2c(C)nnc21 (stereo not given) | 97.2% [middle of 5 runs] | 83.4% [middle of 5 runs] | 44.5% [middle of 5 runs] |  |  |  |  |  |  |  | 798 nM [middle of 5 runs] | 62.2% [middle of 5 runs] | 39.8% [middle of 5 runs] | 36.7% [middle of 5 runs] |
| CN(C)C/C=C/C(=O)Nc1cc2c(Nc3ccc(F)c(Cl)c3)ncnc2cc1O[C@H]1CCOC1 | 74.5% [middle of 5 runs] | 73.5% [middle of 5 runs] |  |  |  |  | 99% [middle of 5 runs] | 97.1% [middle of 5 runs] | 89.2% [middle of 5 runs] | 81% [middle of 5 runs] | > 0.1 µM |  |  |  |
| Cn1ncnc1[C@H]1c2n[nH]c(=O)c3cc(F)cc(c23)N[C@@H]1c1ccc(F)cc1 | 101% [middle of 4 runs] | 89.2% [middle of 4 runs] |  |  |  |  | 107% [middle of 4 runs] | 104% [middle of 4 runs] | 109% (2×) and 98.1% and 107% | 101% [middle of 4 runs] | > 0.1 µM |  |  |  |
